The assay deals with T1, human 4lg B7-H3 (Homo sapiens, UniProt Q5ZPR3).
T1 sequence (Q5ZPR3 29-534): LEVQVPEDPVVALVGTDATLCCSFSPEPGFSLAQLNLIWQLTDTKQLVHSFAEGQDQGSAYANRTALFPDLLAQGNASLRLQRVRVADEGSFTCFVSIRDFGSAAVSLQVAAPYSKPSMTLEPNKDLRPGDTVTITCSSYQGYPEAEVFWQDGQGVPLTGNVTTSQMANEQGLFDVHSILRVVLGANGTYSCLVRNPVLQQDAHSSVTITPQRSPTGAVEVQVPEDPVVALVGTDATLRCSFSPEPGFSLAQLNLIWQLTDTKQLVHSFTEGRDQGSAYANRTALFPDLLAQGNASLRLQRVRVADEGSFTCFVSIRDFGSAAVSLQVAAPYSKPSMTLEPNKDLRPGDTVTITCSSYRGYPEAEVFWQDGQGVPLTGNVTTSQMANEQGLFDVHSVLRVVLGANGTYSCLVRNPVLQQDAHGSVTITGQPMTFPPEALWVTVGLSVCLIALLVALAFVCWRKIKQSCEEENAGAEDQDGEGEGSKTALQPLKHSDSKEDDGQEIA
Put plainly: Affinity determination by surface plasmon resonance (SPR) to 4Ig B7-H3. Conditions: 4Ig B7-H3.

Setting [1] is: SPR KD—37° C., 37° C. flow cell temperature.
The mark [2] stands for this setting: SPR KD—25° C., 25° C. flow cell temperature.

pKd: −log10 of the molar value. Starred links: 1 amine or outer side, 2 acyl side, 3 side chain; linkers in the order of their positions; H or OH if unused. Positions of bridges follow the written chain, without caps; N, C: chain ends. Non-standard residues stand in square brackets, D forms with d. Residues, ends and D or L forms follow the SMILES beside them. Groups on a side chain read outwards from the residue. *: point of attachment. X2 = O=C(O)CN1CCN(CC(=O)O)CCN(CC(=O)NCCOCCOCCOCCOCC(=O)*)CCN(CC(=O)O)CC1; Ala(piperidin-4-yl) = O=C([C@H](CC1CCN([*:3])CC1)N[*:1])[*:2]; DOTA = O=C(O)CN1CCN(CC(=O)O)CCN(CC(=O)*)CCN(CC(=O)O)CC1; Phe(4-NHCONH2) = NC(=O)Nc1ccc(C[C@H](N)C(=O)O)cc1; Trp(5-F) = N[C@@H](Cc1c[nH]c2ccc(F)cc12)C(=O)O; X1 = C[C@@H](c1ccccc1)[C@H](N[*:1])C(=O)[*:2]; 1Nal = N[C@@H](Cc1cccc2ccccc12)C(=O)O; Ala(4-THP) = N[C@@H](CC1CCOCC1)C(=O)O; Val(3-OH) = CC(C)(O)[C@H](N)C(=O)O; 4Pal = N[C@@H](Cc1ccncc1)C(=O)O; PEG4 = NCCOCCOCCOCCOCCC(=O)O; Tle = CC(C)(C)[C@H](N)C(=O)O; hLeu = CC(C)CC[C@H](N)C(=O)O

Turning to `CC(=O)N[C@@H](CCC(C)C)C(=O)N[C@@H](Cc1ccc(O)cc1)C(=O)N[C@H]1CSSC[C@@H](C(=O)N[C@@H](Cc2cccc3ccccc23)C(=O)N[C@@H](Cc2ccccc2)C(=O)N[C@H](C(=O)N[C@H](CCC(=O)O)C(N)=O)C(C)(C)O)NC(=O)[C@H](Cc2ccc(O)cc2)NC(=O)[C@H](C(C)C)NC(=O)[C@H](CC(=O)O)NC(=O)[C@H](CC2CCN(C(=O)CCOCCOCCOCCOCCNC(=O)CN3CCN(CC(=O)O)CCN(CC(=O)O)CCN(CC(=O)O)CC3)CC2)NC(=O)[C@H](CC2CCNCC2)NC(=O)CNC(=O)[C@H](C(C)(C)C)NC1=O` [compound 454, Ac-hLeu-Y-C-Tbg-G-PipAla-Pip(PEG4-DOTA)Ala-D-V-Y-C-1Nal-F-hydroxyVal-dGlu-CONH2] (Ac-[hLeu]YC[Tle]G[Ala(piperidin-4-yl)][Ala(piperidin-4-yl)]([PEG4-DOTA])DVYC[1Nal]F[Val(3-OH)][dE]-NH2; disulfide 3-11), under setting [1], the pKd was greater than 9.00.
Still for that read-out and setting: the figure for `CC(=O)N[C@@H](CCC(C)C)C(=O)N[C@@H](Cc1ccc(O)cc1)C(=O)N[C@H]1CSSC[C@@H](C(=O)N[C@@H](Cc2c[nH]c3ccc(F)cc23)C(=O)N[C@H](C(=O)N[C@H](C(=O)N[C@H](CCCCNC(=O)CN2CCN(CC(=O)O)CCN(CC(=O)O)CCN(CC(=O)O)CC2)C(=O)N[C@H](CCC(=O)O)C(=O)O)C(C)(C)O)[C@@H](C)c2ccccc2)NC(=O)[C@H](Cc2ccc(NC(N)=O)cc2)NC(=O)[C@H](C(C)C)NC(=O)[C@H](CC(=O)O)NC(=O)[C@H](CC2CCOCC2)NC(=O)[C@H](CC2CCNCC2)NC(=O)CNC(=O)[C@H](C(C)(C)C)NC1=O` [compound 508, Ac-hLeu-Y-C-Tbg-G-PipAla-ThpA-D-V-Aph(Cbm)-C-5FW-[(2S, 3S)beta-Me-Phe]-hydroxyVal-dLys(DOTA)-dGlu-COOH] (Ac-[hLeu]YC[Tle]G[Ala(piperidin-4-yl)][Ala(4-THP)]DV[Phe(4-NHCONH2)]C[Trp(5-F)][X1][Val(3-OH)][dK](DOTA)[dE]-OH; disulfide 3-11) is greater than 9.00.
For `CC(=O)N[C@@H](CCC(C)C)C(=O)N[C@@H](Cc1ccc(O)cc1)C(=O)N[C@H]1CSSC[C@@H](C(=O)N[C@@H](Cc2c[nH]c3ccc(F)cc23)C(=O)N[C@@H](Cc2ccccc2)C(=O)N2CCC[C@H]2C(=O)N[C@H](CCCCNC(=O)COCCOCCOCCOCCNC(=O)CN2CCN(CC(=O)O)CCN(CC(=O)O)CCN(CC(=O)O)CC2)C(=O)O)NC(=O)[C@H](Cc2ccc(O)cc2)NC(=O)[C@H](C(C)C)NC(=O)[C@H](CC(=O)O)NC(=O)[C@H](CC2CCOCC2)NC(=O)[C@H](CCCCN)NC(=O)CNC(=O)[C@H](C(C)(C)C)NC1=O` [compound 307, Ac-hLeu-Y-C-Tbg-G-K-ThpA-D-V-Y-C-5FW-F-Pro-dLys(PEG4-DOTA)-COOH] (Ac-[hLeu]YC[Tle]GK[Ala(4-THP)]DVYC[Trp(5-F)]FP[dK](X2)-OH; disulfide 3-11), under setting [2], the pKd was 8.00 to 9.00.
The same measure, in the same setting: with `COc1ccc(C[C@@H]2NC(=O)[C@H](C(C)C)NC(=O)[C@H](CC(=O)O)NC(=O)[C@H](Cc3ccncc3)NC(=O)[C@H](CCCCNC(=O)CN3CCN(CC(=O)O)CCN(CC(=O)O)CCN(CC(=O)O)CC3)NC(=O)CNC(=O)[C@H](C(C)C)NC(=O)[C@@H](NC(=O)[C@H](Cc3ccc(O)cc3)NC(=O)[C@H](CCC(C)C)NC(C)=O)CSSC[C@@H](C(=O)N[C@@H](Cc3c[nH]c4ccc(F)cc34)C(=O)N[C@@H](Cc3ccccc3)C(=O)N3CCC[C@H]3C(N)=O)NC2=O)cc1` [compound 249, Ac-hLeu-Y-C-V-G-Lys(DOTA)-4PyA-D-V-OMeTyr-C-5FW-F-Pro-CONH2] (Ac-[hLeu]YCVGK(DOTA)[4Pal]DVY(Me)C[Trp(5-F)]FP-NH2; disulfide 3-11) the figure was 8.00 to 9.00.

Source of the values: patent US20250296959A1, “B7-H3 TARGETING PEPTIDES AND CONSTRUCTS THEREOF” (Mariana Oncology Inc., priority 2024, published 2025).
